What was measured:
[1] = Analysis of compound stability: spontaneous hydrolysis in aqueous buffer; format: physicochemical; settings: 25 °C, 0.05 M phosphate buffer, pH 7.3; read-out: t1/2 for spontaneous hydrolysis (converted)
Experimental: Spontaneous hydrolysis of selected derivatives was evaluated at 25 °C in 0.05 M phosphate buffer, pH 7.3. Kinetics of hydrolysis were monitored by measuring changes in the absorbance spectra over time using a SpectraMax Plus microplate spectrophotometer (Molecular Devices, Sunnyvale, CA). Absorbance (At) at the characteristic absorption maxima of each compound was measured at the indicated times until no further absorbance decreases occurred (A∞)[52]. Using these measurements, we created semilogarithmic plots of log(At–A∞) versus time, and k′ values were determined from the slopes of these plots. Half-conversion times were calculated using t1/2 = 0.693/k′, as described previously[36]^,[37].

HNE [2] = molecular target: T1, HNE (Homo sapiens, UniProt P08246); experiment: Kinetics of HNE inhibition (double-reciprocal Lineweaver–Burk plots); format: biochemical; settings: Lineweaver–Burk plot of fluorogenic substrate hydrolysis
T1 construct: purchased Calbiochem
T1 sequence (P08246 30-267): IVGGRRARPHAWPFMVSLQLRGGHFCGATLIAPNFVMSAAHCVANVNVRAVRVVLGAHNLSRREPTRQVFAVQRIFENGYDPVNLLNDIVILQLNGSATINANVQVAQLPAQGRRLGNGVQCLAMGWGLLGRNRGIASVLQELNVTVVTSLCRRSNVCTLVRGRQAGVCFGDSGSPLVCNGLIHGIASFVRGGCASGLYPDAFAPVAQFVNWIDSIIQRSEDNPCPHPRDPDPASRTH
Description: To better understand the mechanism of action of these isoxazolone HNE inhibitors, we performed kinetic experiments.
Figure 7. Kinetics of HNE inhibition by compounds 7d and 8d. Representative double reciprocal Lineweaver–Burk plots are shown from three independent experiments.

[3] = molecular target: T2, HNE (human neutrophil elastase) (Homo sapiens, UniProt P08246); experiment: HNE inhibition assay (fluorogenic substrate cleavage); format: biochemical; settings: mean ± SD of three independent experiments; NA: no inhibitory activity at the highest concentration tested (50 µM)
T2 construct: purchased Calbiochem
T2 sequence (P08246 30-267): T1 sequence (P08246 30-267)
Experimental: Compounds were dissolved in 100% DMSO at 5 mM stock concentrations. […] The HNE inhibition assay was performed in black flat-bottom 96-well microtiter plates. Briefly, a buffer solution containing 200 mM Tris–HCl, pH 7.5, 0.01% bovine serum albumin, and 0.05% Tween-20 and 20 mU/mL of HNE (Calbiochem) was added to wells containing different concentrations of each compound. The reaction was initiated by addition of 25 µM elastase substrate (N-methylsuccinyl-Ala-Ala-Pro-Val-7-amino-4-methylcoumarin, Calbiochem) in a final reaction volume of 100 µl/well. Kinetic measurements were obtained every 30 s for 10 min at 25 °C using a Fluoroskan Ascent FL fluorescence microplate reader (Thermo Electron, MA) with excitation and emission wavelengths set at 355 and 460 nm, respectively. For all compounds tested, the concentration of inhibitor that caused 50% inhibition of the enzymatic reaction (IC50) was calculated by plotting % inhibition versus logarithm of inhibitor concentration (at least six points). The data are presented as the mean values of at least three independent experiments with relative standard deviations of <15%.

HNE [4] = molecular target: T1, HNE; experiment: Reversibility of HNE inhibition over extended periods of time; format: biochemical; settings: 8 µM compound
Experimental: The inhibition was maximal for up to 60 min with compound 7e and >120 min for the other tested compounds (4a, 4b, and 7a). However, inhibition by the compounds was eventually reversed, and full recovery of HNE activity was observed by 4 h after treatment with 8 µM of the compound (e.g. see Figure 6).
Figure 6. […] HNE was incubated with the indicated compounds (8 µM), and kinetic curves monitoring substrate cleavage catalysed by HNE over time are shown. Representative curves are from two independent experiments.

half-life [1]: 234 min | mechanism of HNE inhibition (HNE [2]): competitive | IC50 [3]: 50 ± 20 nM | melting point: 159 to 160 °C | time after which HNE inhibition was reversed (HNE [4]): ~30 min
SMILES: CC(=O)Nc1ccc(-c2c(C)n(C(=O)c3cccc(C)c3)oc2=O)cc1 [Compound 7d, N-(4-(3-methyl-2-(3-methylbenzoyl)-5-oxo-2,5-dihydroisoxazol-4-yl)phenyl)acetamide]

Reference: article PMC6032016, “Synthesis, biological evaluation, and molecular modelling studies of potent human neutrophil elastase (HNE) inhibitors” (Journal of Enzyme Inhibition and Medicinal Chemistry, 2018)
